Values joined by “and” are separate entries in the source; they are usually repeats but may differ in a detail not shown here. Identical values can stand only once. Like-named read-outs stand apart in the source and are kept apart here. Each block holds one compound with its values, some of them ahead of it.
Assays:
CYP 2C9 = CYP 2C9 (Homo sapiens, UniProt P11712); test: CYP inhibition assay in human liver microsomes; assay type: in vitro ADME
CYP3A4 = CYP3A4 (Homo sapiens, UniProt P08684); test: CYP inhibition assay in human liver microsomes; assay type: in vitro ADME; conditions: mean value given in text, HLM
Chain of CYP3A4 (P08684 2-503 limits assumed): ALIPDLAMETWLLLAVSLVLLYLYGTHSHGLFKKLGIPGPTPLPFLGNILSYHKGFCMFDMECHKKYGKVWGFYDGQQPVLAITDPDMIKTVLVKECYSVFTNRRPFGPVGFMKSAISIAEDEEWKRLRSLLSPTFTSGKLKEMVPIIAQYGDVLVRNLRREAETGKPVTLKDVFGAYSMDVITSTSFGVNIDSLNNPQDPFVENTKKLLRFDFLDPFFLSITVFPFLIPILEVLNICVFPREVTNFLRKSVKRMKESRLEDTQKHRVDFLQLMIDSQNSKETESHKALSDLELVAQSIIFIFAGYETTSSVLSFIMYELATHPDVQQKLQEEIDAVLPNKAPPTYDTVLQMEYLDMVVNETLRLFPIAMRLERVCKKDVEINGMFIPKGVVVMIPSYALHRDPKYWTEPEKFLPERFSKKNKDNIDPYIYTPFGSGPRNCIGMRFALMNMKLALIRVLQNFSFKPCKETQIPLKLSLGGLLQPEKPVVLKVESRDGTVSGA

CYP 2A6 = target: T1, CYP 2A6 (Homo sapiens, UniProt P11509); test: CYP inhibition assay in human liver microsomes; assay type: in vitro ADME
T1 sequence (P11509 1-494): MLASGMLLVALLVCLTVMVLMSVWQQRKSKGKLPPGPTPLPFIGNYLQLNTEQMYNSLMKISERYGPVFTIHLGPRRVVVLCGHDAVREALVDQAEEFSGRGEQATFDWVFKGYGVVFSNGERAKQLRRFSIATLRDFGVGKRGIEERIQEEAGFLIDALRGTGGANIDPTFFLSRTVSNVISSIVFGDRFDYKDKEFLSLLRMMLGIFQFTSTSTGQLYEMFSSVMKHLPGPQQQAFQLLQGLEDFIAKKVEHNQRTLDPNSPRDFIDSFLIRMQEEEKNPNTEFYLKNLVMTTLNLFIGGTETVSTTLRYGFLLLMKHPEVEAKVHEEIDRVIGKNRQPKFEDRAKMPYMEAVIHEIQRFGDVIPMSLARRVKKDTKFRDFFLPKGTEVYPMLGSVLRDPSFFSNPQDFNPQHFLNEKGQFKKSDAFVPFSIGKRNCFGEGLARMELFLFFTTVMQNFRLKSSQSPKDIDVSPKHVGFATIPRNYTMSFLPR

CYP 2D6 = CYP 2D6 (Homo sapiens, UniProt P10635); test: CYP inhibition assay in human liver microsomes; assay type: in vitro ADME
Chain of CYP 2D6 (P10635 whole entry): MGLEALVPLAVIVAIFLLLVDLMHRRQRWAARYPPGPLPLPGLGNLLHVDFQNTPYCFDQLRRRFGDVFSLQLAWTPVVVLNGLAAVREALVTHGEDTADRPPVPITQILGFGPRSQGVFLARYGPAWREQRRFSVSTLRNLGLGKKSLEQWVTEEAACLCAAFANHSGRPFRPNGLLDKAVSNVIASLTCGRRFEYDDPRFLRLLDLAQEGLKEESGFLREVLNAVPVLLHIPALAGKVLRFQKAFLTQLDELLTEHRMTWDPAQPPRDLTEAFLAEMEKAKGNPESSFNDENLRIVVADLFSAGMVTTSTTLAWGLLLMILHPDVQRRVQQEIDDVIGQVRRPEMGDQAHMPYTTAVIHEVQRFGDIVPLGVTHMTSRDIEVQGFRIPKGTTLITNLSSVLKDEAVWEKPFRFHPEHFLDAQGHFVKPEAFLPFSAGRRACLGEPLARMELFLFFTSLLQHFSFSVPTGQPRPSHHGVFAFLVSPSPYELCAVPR

CYP 2B6 = target: T2, CYP 2B6 (Homo sapiens, UniProt P20813); test: CYP inhibition assay in human liver microsomes; assay type: in vitro ADME; conditions: IC50 CYP 2B6, human liver microsomes; duplicate incubations, both values printed
T2 sequence (P20813 1-491): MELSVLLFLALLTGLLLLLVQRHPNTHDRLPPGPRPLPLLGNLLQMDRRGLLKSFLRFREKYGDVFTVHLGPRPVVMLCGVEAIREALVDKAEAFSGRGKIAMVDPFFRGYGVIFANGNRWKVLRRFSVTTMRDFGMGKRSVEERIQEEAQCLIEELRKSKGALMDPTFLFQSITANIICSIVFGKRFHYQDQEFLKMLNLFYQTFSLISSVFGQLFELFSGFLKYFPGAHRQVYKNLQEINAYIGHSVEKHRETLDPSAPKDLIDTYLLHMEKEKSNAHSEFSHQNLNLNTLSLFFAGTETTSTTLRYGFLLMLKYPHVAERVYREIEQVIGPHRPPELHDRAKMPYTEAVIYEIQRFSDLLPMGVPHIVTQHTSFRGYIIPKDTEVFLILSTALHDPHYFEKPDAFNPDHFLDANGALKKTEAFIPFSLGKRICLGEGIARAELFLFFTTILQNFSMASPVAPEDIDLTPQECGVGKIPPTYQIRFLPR

CYP 2C8 = target: T3, CYP 2C8 (Homo sapiens, UniProt P10632); test: CYP inhibition assay in human liver microsomes; assay type: in vitro ADME
T3 sequence (P10632 1-490): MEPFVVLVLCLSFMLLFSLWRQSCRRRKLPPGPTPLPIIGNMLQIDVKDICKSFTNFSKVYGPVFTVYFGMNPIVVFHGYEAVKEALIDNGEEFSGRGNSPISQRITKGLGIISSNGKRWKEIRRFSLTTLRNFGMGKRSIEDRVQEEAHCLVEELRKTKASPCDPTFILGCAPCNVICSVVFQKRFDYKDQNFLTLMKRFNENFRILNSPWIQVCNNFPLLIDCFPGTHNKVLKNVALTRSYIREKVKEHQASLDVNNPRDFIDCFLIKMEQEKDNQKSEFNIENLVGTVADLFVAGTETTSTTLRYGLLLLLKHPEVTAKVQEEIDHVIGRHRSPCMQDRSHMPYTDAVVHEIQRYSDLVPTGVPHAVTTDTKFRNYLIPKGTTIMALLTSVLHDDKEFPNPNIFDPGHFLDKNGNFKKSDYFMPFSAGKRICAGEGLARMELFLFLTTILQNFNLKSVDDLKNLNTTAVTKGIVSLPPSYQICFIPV

CYP 1A2 = target: T4, CYP 1A2 (Homo sapiens, UniProt P05177); test: CYP inhibition assay in human liver microsomes; assay type: in vitro ADME
T4 sequence (P05177 1-516): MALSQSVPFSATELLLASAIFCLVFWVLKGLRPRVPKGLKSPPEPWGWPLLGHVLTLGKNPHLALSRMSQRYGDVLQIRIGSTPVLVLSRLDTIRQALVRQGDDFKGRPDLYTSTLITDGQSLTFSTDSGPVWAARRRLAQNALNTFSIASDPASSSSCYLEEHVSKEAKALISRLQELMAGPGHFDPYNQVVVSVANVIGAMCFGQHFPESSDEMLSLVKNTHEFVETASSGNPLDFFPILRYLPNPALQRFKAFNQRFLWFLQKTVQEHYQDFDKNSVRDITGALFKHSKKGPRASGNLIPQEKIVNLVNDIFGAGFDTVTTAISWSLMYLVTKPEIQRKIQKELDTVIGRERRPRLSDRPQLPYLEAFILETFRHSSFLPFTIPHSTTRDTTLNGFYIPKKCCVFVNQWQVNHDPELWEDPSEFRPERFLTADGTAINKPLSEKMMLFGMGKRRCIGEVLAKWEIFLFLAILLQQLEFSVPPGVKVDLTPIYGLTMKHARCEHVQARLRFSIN

CYP 2E1 = CYP 2E1 (Homo sapiens, UniProt P05181); test: CYP inhibition assay in human liver microsomes; assay type: in vitro ADME
Chain of CYP 2E1 (P05181 whole entry): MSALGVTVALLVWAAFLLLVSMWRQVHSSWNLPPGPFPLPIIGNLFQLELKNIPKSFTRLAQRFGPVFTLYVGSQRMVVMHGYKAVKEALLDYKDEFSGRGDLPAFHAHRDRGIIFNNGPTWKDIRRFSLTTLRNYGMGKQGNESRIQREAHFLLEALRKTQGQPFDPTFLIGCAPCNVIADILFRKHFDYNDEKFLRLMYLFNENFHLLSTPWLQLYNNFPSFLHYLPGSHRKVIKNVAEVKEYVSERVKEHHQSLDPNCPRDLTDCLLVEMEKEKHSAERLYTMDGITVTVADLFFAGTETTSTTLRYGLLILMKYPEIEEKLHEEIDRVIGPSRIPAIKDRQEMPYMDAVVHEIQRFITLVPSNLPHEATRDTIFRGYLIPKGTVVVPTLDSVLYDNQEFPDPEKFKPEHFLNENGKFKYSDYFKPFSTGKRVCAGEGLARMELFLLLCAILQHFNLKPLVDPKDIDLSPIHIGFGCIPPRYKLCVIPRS

[1] = Single-dose oral PK screening of Nos with dietary ingredients; assay type: in vivo, male CD-1 mice
[2] = Microsomal stability assay of Nos; assay type: in vitro ADME, CD-1 mouse; conditions: Noscapine 10 μM alone; n=2
Repeated-dose = assay type: in vivo, male CD-1 mice; conditions: for AUC(0-t): AUClast
[3] = Microsomal stability assay of Nos; assay type: in vitro ADME, Sprague-Dawley rat; conditions: Noscapine 10 μM alone; n=2
[4] = Microsomal stability assay of Nos; assay type: in vitro ADME, Beagle dog; conditions: Noscapine 10 μM alone; n=2
[5] = Clinical chemistry parameters after 7 days oral dosing; assay type: in vivo, mice; conditions: hepatic and renal serum markers
[6] = cited from earlier work
[7] = Microsomal stability assay of Nos; assay type: in vitro ADME, human; conditions: Noscapine 10 μM alone; n=2
UGT = test: In vitro UGT inhibition in mouse liver; conditions: UGT inhibition experiments, MLM and MIM, Figure 7
[8] = IC50 CYP 2C9, human liver microsomes, duplicate incubations, both values printed
[9] = IC50 CYP 2C8, human liver microsomes, duplicate incubations, both values printed
[10] = IC50 CYP 1A2, human liver microsomes, duplicate incubations, both values printed
[11] = male, CD-1, mouse, plasma, po, 50 mg/kg

Chain of CYP 2C9 (P11712 whole entry): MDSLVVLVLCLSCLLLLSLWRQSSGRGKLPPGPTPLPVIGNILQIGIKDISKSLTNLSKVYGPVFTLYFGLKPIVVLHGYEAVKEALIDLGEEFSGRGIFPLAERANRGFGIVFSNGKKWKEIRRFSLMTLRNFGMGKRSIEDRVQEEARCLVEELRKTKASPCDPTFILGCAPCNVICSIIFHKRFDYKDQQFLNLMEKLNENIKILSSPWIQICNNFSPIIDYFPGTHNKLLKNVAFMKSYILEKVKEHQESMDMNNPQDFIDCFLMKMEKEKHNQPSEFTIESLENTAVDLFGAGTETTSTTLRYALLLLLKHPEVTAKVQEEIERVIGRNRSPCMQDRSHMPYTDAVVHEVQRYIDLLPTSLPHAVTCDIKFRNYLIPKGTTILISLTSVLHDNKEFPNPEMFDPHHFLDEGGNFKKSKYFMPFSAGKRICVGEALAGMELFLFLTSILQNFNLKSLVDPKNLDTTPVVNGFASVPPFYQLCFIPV

IC50 (CYP 2C9): 3.7 µM
IC50 (CYP 2C9; [8]): 4.5 µM
IC50 (CYP 2C9; mean IC50 CYP2C9, mean value given in text, HLM): 4.1 µM
IC50 (CYP3A4; mean IC50 CYP3A4, midazolam as substrate): 16 µM
IC50 (CYP3A4; mean IC50 CYP3A4, testosterone as substrate): 9.7 µM
IC50 (CYP 2A6): > 100 µM
IC50 (CYP 2D6): 68 µM
IC50 (CYP 2B6): 26 µM and 24 µM
IC50 (CYP 2C8; [9]): 6.3 µM and 5.9 µM
IC50 (CYP 2C8; mean IC50 CYP2C8, mean value given in text, HLM): 6.1 µM
IC50 (CYP 1A2; [10]): 3.1 µM and 3.5 µM
IC50 (CYP 1A2; mean IC50 CYP1A2, mean value given in text, HLM): 3.3 µM
IC50 (CYP 2E1): > 100 µM
SMILES: COc1cc(CNC(=O)CCCC/C=C/C(C)C)ccc1O [Cap, capsaicin]

SMILES: C=CCc1ccc(O)c(OC)c1 [Eu, eugenol]
Tmax of Nos ([1]; Nos alone or co-dosed with the named dietary agent, single oral dose): remained unaffected

Intrinsic Clearance MLM [2]: 6.4 mL/min/g liver
IC50 (CYP 2C9; [8]): 18 µM and 24 µM
AUClast (Repeated-dose; Day 1, noscapine, oral gavage Nos 50 mg/kg bw, Cap/Pip 5 mg/kg bw, CD-1 mice): 1023.76 ng·h/mL
Cmax (Repeated-dose; Day 1, noscapine, oral gavage Nos 50 mg/kg bw, Cap/Pip 5 mg/kg bw, CD-1 mice, mean ± SD): 3087.37 ± 1232.27 ng/mL
AUClast (Repeated-dose; Day 7, noscapine, daily oral gavage Nos 50 mg/kg bw, Cap/Pip 5 mg/kg bw, CD-1 mice): 507.74 ng·h/mL
Cmax (Repeated-dose; Day 7, noscapine, daily oral gavage Nos 50 mg/kg bw, Cap/Pip 5 mg/kg bw, CD-1 mice, mean ± SD): 684.04 ± 31.77 ng/mL
Tmax at 1 day (Repeated-dose; [11]): 10.2 min
Tmax at 7 days (Repeated-dose; [11]): 15 min
AUC(0-t) (Repeated-dose; male, CD-1, mouse, plasma, po, 50 mg/kg, Day 1, noscapine, oral gavage Nos 50 mg/kg bw, Cap/Pip 5 mg/kg bw, CD-1 mice): 1020 ng·h/mL
AUC(0-t) (Repeated-dose; male, CD-1, mouse, plasma, po, 50 mg/kg, Day 7, noscapine, daily oral gavage Nos 50 mg/kg bw, Cap/Pip 5 mg/kg bw, CD-1 mice): 508 ng·h/mL
Cmax at 1 day (Repeated-dose; male, CD-1, mouse, plasma, po, 50 mg/kg, Cmax, Day 1, noscapine, oral gavage Nos 50 mg/kg bw, Cap/Pip 5 mg/kg bw, CD-1 mice, mean ± SD): 3090 ng/mL
Cmax at 7 days (Repeated-dose; male, CD-1, mouse, plasma, po, 50 mg/kg, Cmax, Day 7, noscapine, daily oral gavage Nos 50 mg/kg bw, Cap/Pip 5 mg/kg bw, CD-1 mice, mean ± SD): 684 ng/mL
decrease in exposure of Nos on day 7 compared to day 1 (Repeated-dose; repeated oral dosing for seven days): half
Intrinsic Clearance RLM [3]: 4.0 mL/min/g liver
IC50 (CYP 2A6): > 100 µM
IC50 (CYP 2D6): > 100 µM
Intrinsic Clearance DLM [4]: 1.9 mL/min/g liver
IC50 (CYP 2B6): > 100 µM
IC50 (CYP 2C8; [9]): 10 µM and 8.4 µM
IC50 (CYP 1A2; [10]): > 100 µM
clinical chemistry parameters vs vehicle-treated mice [5]: did not affect
IC50 (CYP 2E1): > 100 µM
Intrinsic Clearance HLM [7]: 1.8 mL/min/g liver
AUC(0-t) [1, 11]: 1920 ng·h/mL
Tmax [1, 11]: 4.8 min
half-life [1, 11]: < 60 min
SMILES: COc1ccc2c(c1OC)C(=O)O[C@@H]2[C@H]1c2c(cc3c(c2OC)OCO3)CCN1C [Nos, Noscapine]
bioavailability ([6]; mice, ref Aneja et al., 2007): around 32%
Oral bioavailability ([6]; mouse, reported, no reference given): 30%
half-life ([6]; ref Aneja et al., 2007): < 2 h

IC50 (CYP 2C9): 54 µM
IC50 (CYP 2A6): > 100 µM
IC50 (CYP 2D6): > 100 µM
IC50 (CYP 2B6): 87 µM and 90 µM
IC50 (CYP 2C8; [9]): 84 µM and 78 µM
IC50 (CYP 1A2; [10]): 35 µM and 38 µM
IC50 (CYP 2E1): > 100 µM
SMILES: O=C(/C=C/C=C/c1ccc2c(c1)OCO2)N1CCCCC1 [Pip, piperine]
inhibitory effect on the rate of metabolism of Nos (UGT): did not reveal significant inhibitory effects
